According to patent publication US4923880A, “4,5,6,7-Tetrahydroisothiazolo (4,5-c) pyridine derivatives” (H. Lundbeck A/S, priority 1988, dated 1990):
Structures can show the parent of a compound that is named as a salt. Where two headings read alike, the source gives them in different places.

How the values were obtained:
[1] = target: T1, central muscarinic M-1 receptors (Rattus norvegicus, UniProt P08482); assay: biochemical; assay type: binding; conditions: rat brain homogenate, 1.0 nM 3H-pirenzepine, 60 min at 25° C.
T1 sequence (P08482 1-460): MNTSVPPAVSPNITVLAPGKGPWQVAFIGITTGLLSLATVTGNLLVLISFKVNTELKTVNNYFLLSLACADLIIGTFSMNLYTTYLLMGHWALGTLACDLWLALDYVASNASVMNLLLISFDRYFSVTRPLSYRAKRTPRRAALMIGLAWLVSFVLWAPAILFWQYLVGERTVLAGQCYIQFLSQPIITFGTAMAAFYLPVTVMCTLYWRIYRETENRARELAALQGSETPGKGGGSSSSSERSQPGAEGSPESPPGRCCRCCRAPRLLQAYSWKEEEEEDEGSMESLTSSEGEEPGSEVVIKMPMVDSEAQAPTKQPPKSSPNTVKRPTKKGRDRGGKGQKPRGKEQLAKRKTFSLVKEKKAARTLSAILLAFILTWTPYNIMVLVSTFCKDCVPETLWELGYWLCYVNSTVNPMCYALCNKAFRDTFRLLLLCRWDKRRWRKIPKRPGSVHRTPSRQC
Procedure: ^3 H-pirenzepine binding was performed essentially as described by Watson et al., 1983, the conditions being very much the same as for ^3 H-oxotremorine binding, except that aliquots were incubated with 1.0 nM ^3 H-pirenzepine for 60 min. at 25° C. and that the reaction was stopped by direct filtration followed by 3 washes with 4 ml buffer.

[2] = target: central cholinergic receptors; assay: 3H-oxotremorine M binding (displacement from rat brain homogenates); conditions: rat brain homogenate, 40 min at 30° C., pH 7.4, read-out: 3H-Oxo-M IC50
Procedure: The new compounds have high affinity to central cholinergic receptors, as measured by the ability of the compounds to displace tritiated oxotremorine-M from rat brain homogenates. The compounds have also high affinity to central muscarinic M-1 receptors, as defined by their ability to displace tritiated pirenzepine from rat brain homogenates. […]
^3 H-oxotremorine M binding was performed essentially as described by Birdsdall et al., 1980. Briefly, rat brains were homogenized in 100 vol (w/v) 10 mM Na,K-phosphate buffer (pH 7.4) and aliquots incubated with ^3 H-oxotremorine M (84.9 Ci/mmol, NEN) alone or in the presence of test compound in a total volume of 1.5 ml for 40 min. at 30° C. The reaction was stopped by adding 5 ml ice-cold buffer and filtered through Whatman GF/B filters soaked previously in 0.1% polyethylenimin (Sigma) for minimum 30 min. The filters were washed once with the same volume of buffer, transferred to scintillation vials and extracted in scintillation fluid (Pico-fluor 15, Packard) for at least two hours before counted in a liquid scintillation spectrometer (Beckman LS 1800). Non-specific binding was estimated at 10 μM atropine and all estimations made in triplicate. At least two displacement curves were made for each compound tested.

[3] = after peripheral administration; cited from earlier work
[4] = after peripheral administration; cited from earlier work; remark: listed apart in the source
[5] = cited from earlier work

SMILES | IC50 [1] [nM] | IC50 [2] [nM] | also measured
COc1nsc2c1CNCC2 [Compound 3, 3-Methoxy-4,5,6,7-tetrahydroisothiazole[4,5-c]pyridine Hydrochloride] | 1700 | 18 | 
C=CCOc1nsc2c1CNCC2C (stereo not drawn) [Compound 25, (-+)-7-Methyl-3-(2-propenyloxy)-4,5,6,7-tetrahydroisothiazolo[4,5-c]pyridine, fumarate] | 11 | 5.3 | 
COc1nsc2c1CNCC2C (stereo not shown) [Compound 18, 3-Methoxy-7-methyl-4,5,6,7-tetrahydroisothiazolo[4,5-c]pyridine, fumarate] | 130 | 24 | 
C#CCOc1nsc2c1CN(C)CC2C (single isomer, unassigned; (+)) [Compound 23, (+)-5,7-Dimethyl-3-(2-propynyloxy)-4,5,6,7-tetrahydroisothiazolo[4,5-c]pyridine, oxalate] | 14 |  | IC50 ([2]; oxalate): 18 nM
C#CCOc1nsc2c1CN(C)CC2C (stereo not drawn) [Compound 22, (-+)-5,7-Dimethyl-3-(2-propynyloxy)-4,5,6,7-tetrahydroisothiazolo[4,5-c]pyridine, oxalate] | 6.7 | 5.3 | 
CCOc1nsc2c1CNCC2 [Compound 5, 3-Ethoxy-4,5,6,7-tetrahydroisothiazolo[4,5-c]pyridine, maleate] | 370 | 29 | 
COC(=O)C1=CCCN(C)C1 [Arecoline, methyl 1-methyl-1,2,5,6-tetrahydropyridine-3-carboxylate] |  | 1.9 | penetration of the BBB [3]: capable of penetrating the BBB after peripheral administration; central effects [4]: very weak and frequently negligible central effects; hydrolysis of the ester group in vivo [5]: very rapidly hydrolyzed in vivo
C#CCOc1nsc2c1CNCC2C (single isomer, unassigned; (-)) [Compound 21, (-)-7-Methyl-3-(2-propynyloxy)-4,5,6,7-tetrahydroisothiazolo[4,5-c]pyridine, fumarate] | 8.1 |  | IC50 ([2]; fumarate): 0.93 nM
C#CCOc1nsc2c1CNCC2 [Compound 8, 3-(2-Propynyloxy)-4,5,6,7-tetrahydroisothiazole[4,5-c]pyridine, hemifumarate] | 53 | 6.3 | 
C#CCOc1noc2c1CNCC2C (single isomer, unassigned; (+)) [(+)-O-propargyl-7-Me-THPO, (+)7-methyl-3-(2-propynyloxy)-4,5,6,7-tetrahydroisoxazolo[4,5c]pyridine, reference compound] | 61 | 18 | 
C#CCOc1nsc2c1CNCC2C (single isomer, unassigned; (+)) [Compound 20, (+)-7-Methyl-3-(2-propynyloxy)-4,5,6,7-tetrahydroisothiazolo[4,5-c]pyridine, fumarate] | 5.5 |  | IC50 ([2]; fumarate): 1.6 nM
C#CCOc1nsc2c1CN(C)CC2C (single isomer, unassigned; (-)) [Compound 24, (-)-5,7-Dimethyl-3-(2-propynyloxy)-4,5,6,7-tetrahydroisothiazolo[4,5-c]pyridine, oxalate] | 4.3 |  | IC50 ([2]; oxalate): 3.8 nM
C#CCOc1nsc2c1CNCC2C (stereo not shown) [Compound 19, 7-Methyl-3-(2-propynyloxy)-4,5,6,7-tetrahydroisothiazolo[4,5-c]pyridine, fumarate] | 6.9 | 1.8 | 
